Data published in ChEMBL document CHEMBL4831536, “Neuroregenerative Potential of Prenyl- and Pyranochalcones: A Structure-Activity Study” (J Nat Prod, 2021).
Active and inactive are the calls of the source. The calls are words filed in the database; no cut-off is given here.

Experiments:
[1] = system: MEF; assay: Neuro-regenerative activity in NMRI mouse MEF cells transfected with human DCX promoter-driven firefly luciferase reporter assessed as induction of neuronal differentiation at 10 uM incubated for 3 days by luciferase reporter gene based luminescence analysis; assay type: functional, cell-based; settings: time 3.0 day
[2] = system: MEF; assay: Neuro-regenerative activity in NMRI mouse MEF cells transfected with human DCX promoter-driven firefly luciferase reporter assessed as induction of neuronal differentiation at 10 uM incubated for 3 days by luciferase reporter gene based luminescence analysis relative to control; assay type: functional; settings: time 3 day
[3] = system: MEF; assay: Cytotoxicity against NMRI mouse MEF cells assessed as effect on cell proliferation by measuring effect on renilla activity at 10 uM incubated for 3 days by luminescence based analysis; settings: 72 h, time 3 day

**Q.** How did the Activity [1] turn out when `COc1cc2c(c(O)c1C(=O)/C=C/c1ccc(O)cc1)CCC(C)(C)O2` was run?
**A.** Its Activity is “Active”.

**Q.** `COc1cc2c(c(O)c1C(=O)/C=C/c1ccc3c(c1)OCO3)C=CC(C)(C)O2` was tested. Which Activity [1] did it give?
**A.** The Activity was “Active”.

**Q.** For `COc1cc(O)c(CC=C(C)C)c(O)c1C(=O)/C=C/c1ccc(O)cc1` [XANTHOHUMOL], which Ratio [2] is on record?
**A.** Its Ratio is 5.55.

**Q.** What about the Activity [3] of the same molecule?
**A.** Its Activity is “Toxic”.

**Q.** `CC1(C)C=Cc2c(cc(O)c3c2OC(c2ccc(O)cc2)CC3=O)O1` (stereo not drawn) was tested. Which Activity [1] did it give?
**A.** Its Activity is “Active”.

**Q.** Which Activity [1] does the source give for `COc1ccc(/C=C/C(=O)c2c(OC)cc3c(c2O)C=CC(C)(C)O3)cc1` here?
**A.** The Activity was “Active”.

**Q.** With `COc1cc2c(c(O)c1C(=O)/C=C/c1ccc(O)c(O)c1)C=CC(C)(C)O2` as the molecule, how does the Activity [1] read?
**A.** The Activity was “Active”.

**Q.** And the Activity [3]?
**A.** Its Activity is “Non-Toxic”.

**Q.** How did the Activity [1] turn out when `CC1(C)C=Cc2c(cc3c(c2O)C(=O)CC(c2ccc(O)cc2)O3)O1` (stereo not drawn) was run?
**A.** The Activity was “Active”.

**Q.** Which Activity [1] does the source give for `COc1cc2c(c3c1C(=O)CC(c1ccc(O)cc1)O3)C=CC(C)(C)O2` (stereo not drawn) here?
**A.** Its Activity is “Active”.

**Q.** How did the Activity [1] turn out when `COc1cc2c(c(O)c1C(=O)/C=C/c1ccc(O)cc1)C=CC(C)(CCC=C(C)C)O2` (stereo not drawn) was run?
**A.** The Activity was “inactive”.

**Q.** Which Ratio [2] does the source give for `COc1cc2c(c(O)c1C(=O)/C=C/c1ccc(O)cc1)C=CC(C)(C)O2` [XANTHOHUMOL C] here?
**A.** Its Ratio is 1.56.

**Q.** What about the Activity [3] of the same molecule?
**A.** Its Activity is “Non-Toxic”.
